Reference: patent publication US6479520B1, “Method of treating a patient having precancerous lesions with phenyl pyridinone derivatives” (Cell Pathways, Inc., priority 1995, dated 2002)

melting point	SMILES
196 to 197 °C	CCCOc1cc(SC)ccc1-c1ccc(C#N)c(=O)[nH]1 [2(a), 3-Cyano-6-(4-methylthio-2-propoxyphenyl)-2(1H)-pyridinone]
183 to 183.5 °C	CCCOc1cc(OC)ccc1-c1ccc(C#N)c(=O)[nH]1 [9(a), 3-Cyano-6-(4-methoxy-2-propoxyphenyl)-2(1H)-pyridinone]
